This is an account of results in PubChem BioAssay AID179 (DTP/NCI, 2004).

The test system of the experiment is CEM cells HIV-1 protection, formazan growth assay. Kind of experiment: NCI AIDS Antiviral Assay. Particulars: for IC50: measured here: growth of uninfected CEM cells. In short, it runs like this: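 Screen of anti-HIV-1 activity in human CEM cells using a formazan-based growth measurement at five drug concentrations. Hits with 50% or greater protection were repeated, and confirmation required reproducible complete protection.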

Molecules are shown by their SMILES. “And” between values parts separate entries of the source, which are not always exact repeats. Equal entries are not always repeated. The source made the active and inactive calls.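 The calls were made as follows: active = compounds giving half or more protection of infected cells from virus-caused growth loss, again on retest; inactive = the rest.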 Bounds are passed on as bounds.

`Cc1ccc2[nH]c3c(c2c1)C1CCC(C(C)(C)C)CC1C1C(=O)N(c2ccc4c(c2)OCO4)C(=O)C31` (stereo not drawn): the EC50 was over 200 µM and the IC50 was found to be 11.5 µM. For `Cc1ccc2nnn3c(=N)nc(N)nc3c2c1`, the EC50 was over 79.4 µM and the IC50 was over 79.4 µM. Take `CN1NC2=NCCN=C3NN(C)C(=NCCN=C1S2)S3`: the result was inactive and the IC50 was over 200 µM. With `Cn1c(O)c(/C=N/c2ncccn2)c(=O)[nH]c1=O`, the EC50 is over 200 µM and the IC50 was over 200 µM.

`CC(=O)c1ccc(Cc2ccc(C(C)=O)s2)s1`: the EC50 was over 200 µM and the IC50 was over 200 µM. In the case of `CNC(=S)NC(=S)N(C)C`, the outcome was inactive.

As to `OCC(O)C(Cl)CCl` (stereo not drawn), the EC50 is over 200 µM and the IC50 is over 200 µM. In the case of `Nc1ccc(C(=O)N2CCC[C@H]2CO)c(N)c1`, the EC50 is over 200 µM and the IC50 is over 200 µM.

Take `COc1ccc(NC(=O)COC(=O)c2cccc3c(=O)c4ccccc4[nH]c23)cc1`: the result was inactive. `CCOC(=O)C(/C(=N/NC(=O)OC)C(=O)Nc1ccc(C(C)=O)cc1)c1cnc2ccccc2n1` (stereo not drawn): the EC50 is over 39.8 µM and the IC50 is over 39.8 µM. Regarding `S=C(Nc1c2c(nc3ccccc13)CCCC2)Nc1c2c(nc3ccccc13)CCCC2`, the EC50 is over 200 µM and the IC50 was over 200 µM.

For the compound `O=C(CC(=O)c1cccc2ccccc12)C(=O)Nc1ccc(Cl)cc1`, the result was inactive.

As for `COc1ccc(C2C(Cl)C(=O)N2NC(=O)c2ccccc2O)cc1` (stereo not drawn), the EC50 was over 145 µM and the IC50 was over 145 µM. With `CC(C)(C)C(=O)/C=C/c1ccc(Br)cc1`, the outcome was inactive.

`COC(=O)NN(C(=O)OC)c1c(-c2ccccc2)nc(SC)n1N`: the EC50 is over 200 µM and the IC50 is over 200 µM. `COc1c(Cl)cc(C(=CCC(=O)N[C@@H]2CC[C@@]3(C)[C@@H](CC[C@@H]4[C@@H]3CC[C@]3(C)[C@@H]([C@H](C)CCCC(C)C)CC[C@@H]43)C2)c2cc(Cl)c(OC)c(C(=O)O)c2)cc1C(=O)O`: the EC50 is over 200 µM and the IC50 stood at 10.2 µM.

Regarding `COc1ccccc1C1C(Cl)C(=O)N1n1cnc2ccccc2c1=O` (stereo not drawn), the EC50 is over 52.5 µM and the IC50 was over 52.5 µM.

Turning to `O=C(Nc1ccc(-c2cccs2)oc1=O)c1cnccn1`, the EC50 was over 151 µM and the IC50 was over 151 µM.

As to `CC(C)CCCC(C)C1CCC2C3CC(OC4OC(CO)C(O)C(O)C4O)C4C[C@@H](OS(=O)(=O)O)CC[C@]4(C)C3CC[C@]12C` (stereo partly drawn), the EC50 was over 37.2 µM and the IC50 was found to be 15.1 µM. The matching figures for `COC(=O)c1cc2c(s1)C(=O)c1ccccc1-2`: over 2.24 µM and over 2.24 µM. Taken in the same sequence, the figures for `Cn1c(/C=C(\O)c2ccccc2)nc2ccccc21` were over 105 µM and 83.2 µM. Regarding `COc1ccc(/C=C2\CCOC2=O)cc1OC`, the EC50 is over 776 µM and the IC50 stood at 282 µM. In the case of `O=S(=O)(/C=C/CS(=O)(=O)c1ccccc1)c1ccccc1`, the outcome was inactive.

With `O=C(OCC1OC(c2nn[nH]n2)C(OC(=O)c2ccccc2)C1OC(=O)c1ccccc1)c1ccccc1` (stereo not drawn), the EC50 was over 200 µM and the IC50 is 70.8 µM. For the compound `O=c1nc2sc3ccc4ccccc4c3n2[nH]c1=O`, the EC50 was over 47.9 µM and the IC50 was over 47.9 µM. Turning to `O=C1C(=O)N(c2ccc(Cl)cc2)C(=O)C(=O)C1c1nc2ccccc2o1`, the outcome was inactive. Take `CC(C)=CCC1=C(O)C(=O)C(CC=C(C)C)=C(O)C1=O`: the EC50 was over 83.2 µM and the IC50 was determined as 43.7 µM. Taken in the same sequence, the figures for `CO/C=C/C=C(\C#N)C(=O)OC` were 174 µM and over 200 µM.

As to `CCCCCCCCCCCC(=O)OC[C@@H](C[As](=O)(O)O)OC(=O)CCCCCCCCCCC`, the EC50 is over 200 µM and the IC50 came to 3.89 µM. Taken in the same sequence, the figures for `Cc1nc2c(ncn2CCO)c(=O)[nH]1` were over 200 µM and over 200 µM.

As for `CCOC(=O)/C(=C\c1ccc(N(CCC#N)CCC#N)cc1)NC(=O)c1cc([N+](=O)[O-])ccc1Cl`, the EC50 is over 10.5 µM and the IC50 is over 10.5 µM. For `COc1cc2c[n+](C)c3c4cc5c(cc4ccc3c2cc1OC)OCO5`, the EC50 is over 17.8 µM and the IC50 was 0.437 µM. Regarding `O=C1C2CC=CCC2C(=O)N1n1c(-c2ccccc2)n[nH]c1=O` (stereo not drawn), the EC50 was over 200 µM and the IC50 is over 200 µM.

With `CCOC(=O)c1sc2nc(-c3ccccc3)nn2c1CBr`, the EC50 was over 200 µM and the IC50 amounted to 1.07 µM. Taken in the same sequence, the figures for `N/N=C(/C(=O)Nc1cccc(Cl)c1)C(C(=O)c1ccc(O)cc1O)C1OC(=O)c2ccccc21` (stereo not drawn) were over 525 µM and 87.1 µM. For the compound `Cc1cc(-c2ccccc2)[s+]s1`, the EC50 is over 200 µM; the IC50 is 89.1 µM and 174 µM. As for `COc1cccc(C(C#N)NC23CC4CC(CC(C4)C2)C3)c1` (stereo not drawn), the result was inactive. For the compound `C/C=C(\C)C(=O)O[C@@H]1CC(C)(C)CC2C3=CCC4[C@]56CC[C@](O)(OC5)C(C)(C)C6CC[C@@]4(C)C3(C)CC[C@]21C(=O)O` (stereo partly drawn), the EC50 was over 200 µM and the IC50 was determined as 18.2 µM.

For the compound `CC(=O)NCCCCNCCCNC(C)=O`, the EC50 is over 200 µM and the IC50 was over 200 µM. As for `CCCCCCCCCCCCCCCCCCCCCCNc1ccn(C2CC(OP(=O)(O)OCC3OC(n4cc(C)c(=O)[nH]c4=O)CC3N=[N+]=[N-])C(COP(=O)(O)OCC3CCC(n4ccc(N)nc4=O)O3)O2)c(=O)n1` (stereo not drawn), the EC50 was 0.234 µM and the IC50 came out at 38 µM. The matching figures for `S=C(NCCc1ccccc1)N1CCC(CCCC2CCN(C(=S)NCCc3ccccc3)CC2)CC1`: over 200 µM and over 200 µM. Taken in the same sequence, the figures for `CCSc1cccc(C(=O)O)c1` were over 513 µM and over 513 µM. Consider `COc1ccc(OC)c(NC(=O)C2=C(C)NC(C)=C(C(=O)Nc3cc(OC)ccc3OC)C2c2ccccc2)c1`, for which the result was inactive. Take `COc1ccc(N2C(Cl)C(=O)C2c2c[nH]c3ccccc23)cc1` (stereo not drawn): the EC50 is over 151 µM and the IC50 came to 132 µM. The matching figures for `CC1(C)CCc2c(cc3c(c2O)CCC(C)(C)O3)O1`: over 200 µM and over 200 µM. Taken in the same sequence, the figures for `COC(=O)/C=C/C1C2C3(CCC(C)C12C)OCCS3` (stereo not drawn) were over 126 µM and over 126 µM. On to `COc1ccc(-c2c3c(nc4nc(SCCc5ccccc5)nc(N)c24)CCCC3)cc1OC`, for which the EC50 was over 200 µM and the IC50 is over 200 µM.

Consider `Cc1ccccc1Cn1nc2ccccc2cc1=O`, for which the EC50 was over 380 µM and the IC50 is over 380 µM.

Turning to `CCOC(=O)CN=C1Nc2ccccc2C(=O)N2CSCC12` (stereo not drawn), the EC50 was over 200 µM and the IC50 was determined as 158 µM.

On to `CN(CCCNC(=O)c1cn(C)c2c1ccc1ccccc12)CCCNC(=O)c1cn(C)c2c1ccc1ccccc12`, for which the EC50 is over 200 µM and the IC50 was determined as 2.88 µM. The matching figures for `COc1ccc(-c2c(C)oc3cc(OC(C)=O)ccc3c2=O)cc1`: over 200 µM and 30.9 µM. The matching figures for `COC(=O)C1(C)OS(=O)(=O)c2ccccc21` (stereo not drawn): over 537 µM and over 537 µM. In the case of `C[N+]1=C2[B-](C(C)(C)C)=[N+](C(C)(C)C)[B-]2(C(C)(C)C)[N+](C)=C2[B-](C(C)(C)C)=[N+](C(C)(C)C)[B-]21C(C)(C)C` (stereo not drawn), the EC50 was over 50.1 µM and the IC50 was over 50.1 µM. As to `NC(N)=NS(=O)(=O)c1ccc(Nc2c3ccccc3nc3c(C(=O)NCCO)cccc23)cc1`, the EC50 is over 200 µM and the IC50 worked out at 8.91 µM.

For the compound `OCC1OC(n2ccc3c2ncn2cnnc32)C(O)C1O` (stereo not drawn), the EC50 is over 309 µM and the IC50 came to 29.5 µM. Turning to `COc1cc(C(=O)n2c(=O)oc(=O)c3cc([N+](=O)[O-])ccc32)cc(OC)c1OC`, the EC50 was over 200 µM and the IC50 was over 200 µM. `CC(=O)C1CC=C(C)CC1` (stereo not drawn): the EC50 was over 1820 µM and the IC50 is 141 µM.

Regarding `Cc1cccc2c1c(=O)c1c(O)c3c(cc1n2C)OC(C)(C)C=C3`, the EC50 was over 200 µM and the IC50 was 87.1 µM. In the case of `N#CC1(C#N)NC(c2ccccc2)C(C#N)(C#N)NC1c1ccccc1` (stereo not drawn), the EC50 was over 200 µM and the IC50 was over 200 µM.

Regarding `CN(C)c1cccc(/C=C(\C#N)c2ccccc2)c1`, the EC50 is over 200 µM and the IC50 amounted to 0.339 µM.

`CC1(C)CC(=O)c2c(nc(SSc3nc4c(c(-c5ccc(Br)cc5)c3C#N)C(=O)CC(C)(C)C4)c(C#N)c2-c2ccc(Br)cc2)C1`: the EC50 was 18.6 µM and the IC50 came to 162 µM. For `COC[C@@H](N=CN1CCc2cc(OC)ccc2C1)C(C)C`, the EC50 was over 871 µM and the IC50 was over 871 µM.

With `CCOC(=O)C[P+](c1ccc(Cl)cc1)(c1ccc(Cl)cc1)c1ccc(Cl)cc1`, the EC50 was over 200 µM and the IC50 is 18.6 µM. In the case of `CC(=O)OCC1=C(C)C[C@H]([C@@H](COC(C)=O)C2CCC3C4C[C@H]5O[C@]56CC=CC(=O)[C@]6(C)C4CC[C@@]32C)OC1=O` (stereo partly drawn), the EC50 is over 200 µM and the IC50 is 0.135 µM.

As to `CC1(C)CCc2cc3c(cc2O1)OCCC3O` (stereo not drawn), the outcome was inactive.

Regarding `O=C1CC2(CCC(O)(c3ccc(Cl)cc3)C(C(=O)c3ccc(Cl)cc3)C2)C(=O)c2ccccc2N1` (stereo not drawn), the EC50 is over 200 µM and the IC50 came to 67.6 µM. With `CC(=O)OC1=c2ccccc2=C(O)C2C1C=NN2C(C)=O` (stereo not drawn), the EC50 was over 200 µM and the IC50 turned out to be 87.1 µM. The matching figures for `C[C@@H](NC(=O)c1ccccc1SC(=O)OCCBr)C(N)=O`: 4.57 µM and over 200 µM.

Consider `c1ccc(CNc2nncc3[nH]cnc23)cc1`, for which the EC50 is over 200 µM and the IC50 is over 200 µM. Turning to `O=C1C(C(O)(C(F)(F)Cl)C(F)(F)Cl)CCCC1C(O)(C(F)(F)Cl)C(F)(F)Cl` (stereo not drawn), the EC50 is over 200 µM and the IC50 was 10 µM. The matching figures for `CCCCCCC(C)c1ccc2c(c1)C(=O)c1nc3ccncc3c(=O)n1-2` (stereo not drawn): over 200 µM and 0.955 µM.

Usually EC50 stands for the concentration at which the effect is half-maximal. In general, IC50 refers to the concentration that gives 50% inhibition. High values mean weaker potency, low ones greater potency.
